From patent publication USRE48267E1, “Variants of C-type natriuretic peptide” (priority 2009, dated 2020)
Where two headings read alike, the source gives them in different places. Where a SMILES comes first, the peptide text is derived from it. Bridges are numbered along the chain shown (N, C = ends). Where no end group is shown, it is not given here. [ ]: non-standard residue; d: D form. Cit = NC(=O)NCCC[C@H](N)C(=O)O

What was measured:
[1] = target: T1, NPR-B (Mus musculus, UniProt Q6VVW5); experiment: stimulation of cGMP production in NIH3T3 cells; assay type: cell-based, murine; conditions: for cGMP Response rel. to 1 uM CNP22, 10 nM: NIH3T3 cells exposed to 10 nM peptide; for cGMP Response rel. to 1 uM CNP22, 10 nM / cGMP Response rel. to 1 uM CNP22, 1 uM: normalized to cell number and cGMP production in the presence of 1 uM wtCNP22; for cGMP Response rel. to 1 uM CNP22, 1 uM: NIH3T3 cells exposed to 1 uM peptide
T1 construct: Murine NIH3T3 cells express endogenously the CNP signaling receptor, NPR-B; endogenous in cells; host or cells: NIH3T3
T1 sequence (Q6VVW5 17-1047): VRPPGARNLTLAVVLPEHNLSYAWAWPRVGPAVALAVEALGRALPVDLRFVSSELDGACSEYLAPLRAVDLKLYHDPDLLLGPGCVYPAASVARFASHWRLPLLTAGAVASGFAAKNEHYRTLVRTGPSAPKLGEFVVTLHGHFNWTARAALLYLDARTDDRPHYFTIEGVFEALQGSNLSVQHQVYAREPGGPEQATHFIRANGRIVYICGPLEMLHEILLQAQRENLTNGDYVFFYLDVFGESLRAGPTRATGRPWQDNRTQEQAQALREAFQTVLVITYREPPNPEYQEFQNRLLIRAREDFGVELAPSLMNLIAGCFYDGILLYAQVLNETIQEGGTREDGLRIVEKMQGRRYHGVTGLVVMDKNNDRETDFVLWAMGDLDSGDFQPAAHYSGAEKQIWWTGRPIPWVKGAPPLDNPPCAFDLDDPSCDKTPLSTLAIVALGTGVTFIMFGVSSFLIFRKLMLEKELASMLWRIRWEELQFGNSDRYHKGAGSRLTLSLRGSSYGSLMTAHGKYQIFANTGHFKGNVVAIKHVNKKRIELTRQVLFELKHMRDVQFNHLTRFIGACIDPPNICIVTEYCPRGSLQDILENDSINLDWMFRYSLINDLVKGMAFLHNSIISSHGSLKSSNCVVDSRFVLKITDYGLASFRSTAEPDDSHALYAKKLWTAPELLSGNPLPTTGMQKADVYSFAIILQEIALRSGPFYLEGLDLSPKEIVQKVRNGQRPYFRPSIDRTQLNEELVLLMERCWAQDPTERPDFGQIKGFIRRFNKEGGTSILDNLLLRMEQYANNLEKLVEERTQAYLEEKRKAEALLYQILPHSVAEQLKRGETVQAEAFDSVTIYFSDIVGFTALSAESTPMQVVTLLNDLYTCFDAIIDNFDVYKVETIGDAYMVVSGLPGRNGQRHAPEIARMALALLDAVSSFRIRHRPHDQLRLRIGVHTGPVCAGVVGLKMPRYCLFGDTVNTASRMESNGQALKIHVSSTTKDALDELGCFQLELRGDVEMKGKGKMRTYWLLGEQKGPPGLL
Method: To determine the functional activity of CNP variants, the production of cGMP was measured in NIH3T3 cells exposed to the CNP variants. Murine NIH3T3 cells express endogenously the CNP signaling receptor, NPR-B, which shares 98% protein sequence identity with human NPR-B. NIH3T3 cells were cultured in high glucose Dulbecco's Modified Eagle Medium supplemented with 10% fetal calf serum and antibiotics at 37° C. with 5% CO2). Twenty four to 48 hours prior to signaling, cells were passaged to 12-well plates with a density of 2-5×10^5 cells per well at the time of the assay. CNP variants were resuspended in 1 mM HCl to a stock concentration of 1 mg/mL (455 uM for wtCNP22) and subsequently diluted to a 30 uM working stock solution with phosphate-buffered saline (PBS). Ten-fold serial dilutions were prepared in phosphate-buffered saline. Culture medium was removed from the cells and replaced with 0.4 mL PBS/Dulbecco's modified Eagle medium (50/50, v/v) containing 0.75 mM isobutylmethylxanine. Plates were incubated at 37° C., 5% CO2 for 15 minutes before addition of 0.2 mL CNP variant in PBS and continued incubation at 37° C. for 15 minutes. Reactions were stopped by the addition of 0.2 mL lysis buffer supplied with the CatchPoint cGMP assay kit (Molecular Devices), and cGMP production was determined with the CatchPoint cGMP Assay (Molecular Devices). All stimulation experiments were performed in duplicate.
Tables 1-4 summarize the ability of CNP variants having backbone or side chain modifications, amino acid substitutions, N-terminal amino acid extensions, and/or N-terminal PEGylation, respectively, to stimulate cGMP production in NIH3T3 cells. In all four tables, the values for cGMP production in NIH3T3 cells exposed to 10 nM or 1 uM CNP variant are normalized to cell number and cGMP production in the presence of 1 uM wtCNP22.

[2] = target: Recombinant human NEP (Homo sapiens, UniProt P08473); experiment: in vitro NEP cleavage assay (disappearance of non-cleaved CNP variant)
Method: To determine the effects of amino acid substitutions, amino acid extensions, backbone modifications, side chain modifications and PEGylation on the susceptibility of CNP variants to neutral endopeptidase (NEP) cleavage, peptide cleavage assays were carried out using an in vitro assay that monitored disappearance of the non-cleaved CNP variant.
Recombinant human NEP (1 ug/mL final concentration) was added to 100 uM CNP variant diluted in 0.1 M Tris, pH 7. The reaction mixture was incubated at 37° C. for various periods of time, and the reaction was quenched with EDTA (10 mM final) followed by heat denaturation. The reaction mixture was reduced and then the reaction products were analyzed using HPLC and mass spectroscopy. The half-life of the CNP variant was calculated based on the disappearance of intact CNP variant over time.

Recombinant human NEP, sequence (P08473 whole entry): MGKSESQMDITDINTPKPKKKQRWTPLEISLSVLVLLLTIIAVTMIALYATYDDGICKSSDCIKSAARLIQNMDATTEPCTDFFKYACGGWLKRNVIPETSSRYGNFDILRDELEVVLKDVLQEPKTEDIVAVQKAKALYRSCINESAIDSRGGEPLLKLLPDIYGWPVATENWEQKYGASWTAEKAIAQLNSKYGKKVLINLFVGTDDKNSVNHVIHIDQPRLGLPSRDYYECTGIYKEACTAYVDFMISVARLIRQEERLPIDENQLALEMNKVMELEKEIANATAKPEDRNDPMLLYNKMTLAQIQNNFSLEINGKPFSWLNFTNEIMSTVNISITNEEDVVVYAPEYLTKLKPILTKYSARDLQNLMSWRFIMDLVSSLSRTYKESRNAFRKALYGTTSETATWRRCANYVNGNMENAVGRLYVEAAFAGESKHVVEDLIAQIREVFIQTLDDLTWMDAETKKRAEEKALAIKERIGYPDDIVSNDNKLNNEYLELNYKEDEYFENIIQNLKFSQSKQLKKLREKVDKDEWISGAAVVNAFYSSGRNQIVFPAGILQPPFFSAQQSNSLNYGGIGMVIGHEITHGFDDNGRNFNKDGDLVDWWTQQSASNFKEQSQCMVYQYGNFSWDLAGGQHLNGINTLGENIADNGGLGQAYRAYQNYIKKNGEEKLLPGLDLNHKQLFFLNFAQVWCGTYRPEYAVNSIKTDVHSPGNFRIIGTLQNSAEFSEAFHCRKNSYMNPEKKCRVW

Compound	cGMP Response rel. to 1 uM CNP22, 10 nM [1]	cGMP Response rel. to 1 uM CNP22, 1 uM [1]	NPR-B stimulation activity / cGMP production compared with wtCNP22 (in words) ([1]; NIH3T3 cells)	NEP Cleavage (t1/2, min) ([2]; 100 uM peptide, 1 ug/mL NEP, 0.1 M Tris pH 7, 37° C., adjusted t1/2, CNP22 normalized to 80 min)	resistance to NEP cleavage (in words) ([2]; in vitro NEP assay, assay period 160 minutes)	resistance to NEP cleavage (in words) [2]
CC[C@H](C)[C@@H]1NC(=O)[C@H](CCCNC(=N)N)NC(=O)[C@H](CC(=O)O)NC(=O)[C@H](CC(C)C)NC(=O)[C@H](CCCCN)NC(=O)[C@H](CC(C)C)NC(=O)CNC(=O)[C@H](Cc2ccccc2)NC(=O)[C@@H](NC(=O)CNC(=O)[C@H](CCCCN)NC(=O)[C@H](CO)NC(=O)[C@H](CC(C)C)NC(=O)CNC(=O)[C@H](CCC(N)=O)NC(=O)[C@H](CCC(N)=O)NC(=O)[C@H](CC(N)=O)NC(=O)[C@H](C)NC(=O)CNC(=O)[C@H](Cc2c[nH]cn2)NC(=O)[C@@H]2CCCN2C(=O)[C@H](Cc2c[nH]cn2)NC(=O)[C@H](CCC(N)=O)NC(=O)[C@H](CCC(=O)O)NC(=O)[C@H](Cc2c[nH]cn2)NC(=O)[C@H](CO)NC(=O)[C@H](Cc2c[nH]cn2)NC(=O)[C@H](Cc2c[nH]cn2)NC(=O)CN)CSSC[C@@H](C(=O)O)NC(=O)CNC(=O)[C@H](CC(C)C)NC(=O)CNC(=O)[C@H](CO)NC(=O)[C@H](CCSC)NC(=O)[C@H](CO)NC(=O)CNC1=O [Analog CQ] (H-GHHSHEQHPHGANQQGLSKGCFGLKLDRIGSMSGLGC-OH; disulfide 21-37; N-terminus and C-terminus assumed)	16	95	–	–	–	–
SPKMVQGSG-CNP17-KVLRRH (SPKMVQGSGCFGLKLDRIGSMSGLGCKVLRRH; disulfide 10-26 (inferred); ends not checked) [Analog CD]	–	–	comparable NPR-B stimulation activity as wtCNP22	–	–	–
CC[C@@H](C)[C@H]1NC(=O)[C@@H](CCCNC(=N)N)NC(=O)[C@@H](CC(=O)O)NC(=O)[C@@H](CC(C)C)NC(=O)[C@@H](CCCCN)NC(=O)[C@@H](CC(C)C)NC(=O)CNC(=O)[C@@H](Cc2ccccc2)NC(=O)[C@H](NC(=O)CNC(=O)[C@@H](CCCCN)NC(=O)[C@@H](CO)NC(=O)[C@@H](CC(C)C)NC(=O)CN)CSSC[C@H](C(=O)O)NC(=O)CNC(=O)[C@@H](CC(C)C)NC(=O)CNC(=O)[C@@H](CO)NC(=O)[C@@H](CCSC)NC(=O)[C@@H](CO)NC(=O)CNC1=O [Analog N, D-CNP22 (all D-amino acids)]	2	1	–	>>160 min	greatest resistance to NEP cleavage	–
CC[C@H](C)[C@@H]1NC(=O)[C@H](CCCNC(=N)N)NC(=O)[C@H](CC(=O)O)NC(=O)[C@H](CC(C)C)N(C)C(=O)[C@H](CCCCN)NC(=O)[C@H](CC(C)C)N(C)C(=O)CNC(=O)[C@H](Cc2ccccc2)NC(=O)[C@@H](NC(=O)CNC(=O)[C@H](CCCCN)NC(=O)[C@H](CO)NC(=O)[C@H](CC(C)C)NC(=O)CN)CSSC[C@@H](C(=O)O)NC(=O)CNC(=O)[C@H](CC(C)C)N(C)C(=O)CNC(=O)[C@H](CO)NC(=O)[C@H](CCSC)NC(=O)[C@H](CO)NC(=O)CNC1=O [Analog L, CNP22, N-methyl-L9, N-methyl-L11, N-methyl-L20]	18	10	–	–	–	substantially shorter half-life
CC[C@H](C)[C@@H]1NC(=O)[C@H](CCCNC(=N)N)NC(=O)[C@H](CC(=O)O)NC(=O)[C@H](CC(C)C)NC(=O)[C@H](CCCCN)NC(=O)[C@H](CC(C)C)NC(=O)CNC(=O)[C@H](Cc2ccccc2)NC(=O)[C@@H](NC(=O)CNC(=O)[C@H](CCCNC(=N)N)NC(=O)[C@H](CO)NC(=O)[C@H](CC(C)C)NC(=O)CN)CSSC[C@@H](C(=O)O)NC(=O)CNC(=O)[C@H](CC(C)C)NC(=O)CNC(=O)[C@H](CO)NC(=O)[C@H](CCSC)NC(=O)[C@H](CO)NC(=O)[C@H](CCCNC(N)=O)NC1=O [Analog AF, CNP22, K4R, G15Cit] (H-GLSRGCFGLKLDRI[Cit]SMSGLGC-OH; disulfide 6-22)	1.4	2	–	–	–	–
CC[C@H](C)[C@@H]1NC(=O)[C@H](CCCNC(=N)N)NC(=O)[C@H](CC(=O)O)NC(=O)[C@H](CC(C)C)NC(=O)[C@H](CCCCN)NC(=O)[C@H](CC(C)C)NC(=O)CNC(=O)[C@H](Cc2ccccc2)NC(=O)[C@@H](NC(=O)CNC(=O)[C@H](CCCNC(=N)N)NC(=O)[C@H](CO)NC(=O)[C@H](CC(C)C)NC(=O)CN)CSSC[C@@H](C(=O)O)NC(=O)CNC(=O)[C@H](CC(C)C)NC(=O)CNC(=O)[C@H](CO)NC(=O)[C@H](CCSC)NC(=O)[C@H](CO)NC(=O)[C@H](CCCNC(=N)N)NC1=O [Analog AE, CNP22, K4R, G15R] (H-GLSRGCFGLKLDRIRSMSGLGC-OH; disulfide 6-22)	0.3	0.3	–	–	–	–
CC[C@H](C)[C@@H]1NC(=O)[C@H](CCCNC(=N)N)NC(=O)[C@H](CC(=O)O)NC(=O)[C@H](CC(C)C)NC(=O)[C@H](CCCCN)NC(=O)[C@H](CC(C)C)NC(=O)CNC(=O)[C@H](Cc2ccccc2)NC(=O)[C@@H](NC(=O)CNC(=O)[C@H](CCCNC(=N)N)NC(=O)[C@H](CO)NC(=O)[C@H](CC(C)C)NC(=O)CN)CSSC[C@@H](C(=O)O)NC(=O)CNC(=O)[C@H](CC(C)C)NC(=O)CNC(=O)[C@H](CO)NC(=O)[C@H](C(C)C)NC(=O)[C@H](CO)NC(=O)CNC1=O [Analog AG, CNP22, K4R, M17V] (H-GLSRGCFGLKLDRIGSVSGLGC-OH; disulfide 6-22)	10	65	–	–	–	–
CC[C@H](C)[C@@H]1NC(=O)[C@H](CCCNC(=N)N)NC(=O)[C@H](CC(=O)O)NC(=O)[C@H](CC(C)C)NC(=O)[C@H](CCCCN)NC(=O)[C@H](CC(C)C)NC(=O)CNC(=O)[C@H](Cc2ccccc2)NC(=O)[C@@H](NC(=O)CNC(=O)[C@H](CCCCN)NC(=O)[C@H](CO)NC(=O)[C@H](CC(C)C)NC(=O)CNC(=O)[C@H](CCC(N)=O)NC(=O)[C@H](CCC(N)=O)NC(=O)[C@H](CC(N)=O)NC(=O)[C@H](C)NC(=O)CNC(=O)[C@H](Cc2c[nH]cn2)NC(=O)[C@@H](NC(=O)[C@H](CC(=O)O)NC(=O)[C@H](Cc2c[nH]cn2)NC(=O)[C@H](CCC(=O)O)NC(=O)[C@H](Cc2c[nH]cn2)NC(=O)[C@@H]2CCCN2C(=O)[C@H](Cc2c[nH]cn2)NC(=O)[C@H](Cc2c[nH]cn2)NC(=O)[C@H](C)NC(=O)CN)[C@@H](C)O)CSSC[C@@H](C(=O)O)NC(=O)CNC(=O)[C@H](CC(C)C)NC(=O)CNC(=O)[C@H](CO)NC(=O)[C@H](CCSC)NC(=O)[C@H](CO)NC(=O)CNC1=O [Analog CR] (H-GAHHPHEHDTHGANQQGLSKGCFGLKLDRIGSMSGLGC-OH; disulfide 22-38; N-terminus and C-terminus assumed)	14 ± 5	77 ± 12	–	–	–	–
